Where two headings read alike, the source gives them in different places.
Tests used:
[1] = tested on: Human-Fibroblasten (2 Tage alt); experiment: Cell tolerance, microscopic reading; format: cell-based; set-up: key: 0̸: Am 5. Tag der mikroskopischen Ablesung keine morphologischen Veränderungen der Zellen.; ++++: Komplette Veränderungen der Zellschicht in Form von Abrundung, Granulierung und Ablösen der Zellen von der Glaswand.; +++: Analoge Veränderungen bei 3/4 des Zellrasens.; ++: Analoge Veränderungen bei 1/2 des Zellrasens.; +: Analoge Veränderungen bei 1/4 des Zellrasens; details: HFi, reading day 5
Source text: (§1) 0̸ = Am 5. Tag der mikroskopischen Ablesung keine morphologischen Veränderungen der Zellen. ++++ = Komplette Veränderungen der Zellschicht in Form von Abrundung, Granulierung und Ablösen der Zellen von der Glaswand. +++ = Analoge Veränderungen bei 3/4 des Zellrasens. ++ = Analoge Veränderungen bei 1/2 des Zellrasens. + = Analoge Veränderungen bei 1/4 des Zellrasens.

[2] = tested on: MDBK (bovine Nierenzellen-Permanentzellinie); experiment: Cell tolerance, microscopic reading; format: cell-based; set-up: key: 0̸: Am 5. Tag der mikroskopischen Ablesung keine morphologischen Veränderungen der Zellen.; ++++: Komplette Veränderungen der Zellschicht in Form von Abrundung, Granulierung und Ablösen der Zellen von der Glaswand.; +++: Analoge Veränderungen bei 3/4 des Zellrasens.; ++: Analoge Veränderungen bei 1/2 des Zellrasens.; +: Analoge Veränderungen bei 1/4 des Zellrasens; details: MDKB, reading day 5
Source text: as §1

[3] = tested on: RH (humane Nierenzellen-Permanentzellinie); experiment: Cell tolerance, microscopic reading; format: cell-based; set-up: key: 0̸: Am 5. Tag der mikroskopischen Ablesung keine morphologischen Veränderungen der Zellen.; ++++: Komplette Veränderungen der Zellschicht in Form von Abrundung, Granulierung und Ablösen der Zellen von der Glaswand.; +++: Analoge Veränderungen bei 3/4 des Zellrasens.; ++: Analoge Veränderungen bei 1/2 des Zellrasens.; +: Analoge Veränderungen bei 1/4 des Zellrasens; details: reading day 5
Source text: as §1

[4] = tested on: Vaccinia Lister; format: cell-based, Vaccinia-Virus; details: for % Hemmung / Senkung des Virusertrages im Vergleich zur unbehandelten Kontrolle: Vaccinia Lister
[5] = tested on: Influenza A/WSN; experiment: One-step replication cycle on chick embryo cells; format: cell-based, Influenza-Virus; details: for % Hemmung / Senkung des Virusertrages im Vergleich zur unbehandelten Kontrolle: Influenza A/WSN
[6] = tested on: Coxsackie A 9-Virus; experiment: Antiviral test in vitro; format: cell-based
[7] = tested on: Vaccinia Lister; experiment: One-step replication cycle on permanent human kidney cell line
[8] = tested on: Herpes simplex Typ 1 Kupka; experiment: as above
[9] = 125 µmol/l in maintenance medium
[10] = 250 µmol/l in maintenance medium
[11] = 500 µmol/l in maintenance medium
[12] = 1000 µmol/l in maintenance medium
[13] = 62,5 µmol/l in maintenance medium
[14] = Beispielreihe 2, HEZ, 125 µmol/l, mean of three experiments
[15] = Beispielreihe 2, HEZ, 250 µmol/l, mean of three experiments
[16] = Beispielreihe 2, HEZ, 31,25 µmol/l, mean of three experiments
[17] = Beispielreihe 2, HEZ, 31,25 µmol/l, mean of three experiments, 31.25 µM
[18] = Beispielreihe 2, HEZ, 62,5 µmol/l, mean of three experiments
[19] = Beispielreihe 2, HEZ, 62,5 µmol/l, mean of three experiments, 62.5 µM
[20] = Beispielreihe 3, 125 µmol/l, mean of two experiments
[21] = Beispielreihe 3, 250 µmol/l, mean of two experiments
[22] = Beispielreihe 3, Herpes simplex Typ 1 Kupka, 125 µmol/l, mean of two experiments
[23] = Beispielreihe 3, Herpes simplex Typ 1 Kupka, 250 µmol/l, mean of two experiments
[24] = Beispielreihe 5b, Hühnerembryonalfibroblasten, 125 µmol/l
[25] = Beispielreihe 5b, Hühnerembryonalfibroblasten, 250 µmol/l
[26] = Beispielreihe 5b, Hühnerembryonalfibroblasten, 62,5 µmol/l
[27] = Beispielreihe 5b, Hühnerembryonalfibroblasten, 62,5 µmol/l, 62.5 µM
[28] = Beispielreihe 5a, Herpes simplex Typ 1, 125 µmol/l
[29] = Beispielreihe 5a, Herpes simplex Typ 1, 250 µmol/l

For `O=c1[nH]c2ccccc2c(=O)n1CCS` [Beispiel 1, 3-(2-Mercaptoethyl)-chinazolin-2,4(1H,3H)-dion], the Zellverträglichkeit [1, 9] was 0̸, the Zellverträglichkeit [1, 10] was 0̸ and the Zellverträglichkeit [1, 11] was 0̸. The Zellverträglichkeit [1, 12] was “++”, the Zellverträglichkeit [1, 13] was 0̸ and the Zellverträglichkeit [2, 9] was 0̸. The Zellverträglichkeit [2, 10] was 0̸, the Zellverträglichkeit [2, 11] was “++” and the Zellverträglichkeit [2, 12] was “++++”. For the same molecule, the Zellverträglichkeit [2, 13] was 0̸, the Zellverträglichkeit [3, 9] was 0̸ and the Zellverträglichkeit [3, 10] was 0̸. The Zellverträglichkeit [3, 11] was “++”, the Zellverträglichkeit [3, 12] was “+++” and the Zellverträglichkeit [3, 13] was 0̸. The “% Hemmung” value [4, 14] was 99,99%, the “Senkung des Virusertrages im Vergleich zur unbehandelten Kontrolle” value [4, 14] was 4,0 log10 TCID50/0,2 ml and the “% Hemmung” value [4, 15] was > 99,99%. For the same molecule, the “Senkung des Virusertrages im Vergleich zur unbehandelten Kontrolle” value [4, 15] was 5,67 log10 TCID50/0,2 ml, the “Senkung des Virusertrages im Vergleich zur unbehandelten Kontrolle” value [4, 16] was 1,0 log10 TCID50/0,2 ml and the “% Hemmung” value [4, 17] was 99,0%. For the same molecule, the “Senkung des Virusertrages im Vergleich zur unbehandelten Kontrolle” value [4, 18] was 2,5 log10 TCID50/0,2 ml, the “% Hemmung” value [4, 19] was 99,68% and the “Therapeutischer Index = Verhältnis von maximal verträglicher und minimal wirksamer Dosis” value ([4]; für Vaccinia-Virus, HEZ) was 8. The “% Hemmung” value [5, 14] was > 99,99%, the “Senkung des Virusertrages im Vergleich zur unbehandelten Kontrolle” value [5, 14] was 4,67 log10 TCID50/0,2 ml and the “% Hemmung” value [5, 15] was > 99,99%. For the same molecule, the “Senkung des Virusertrages im Vergleich zur unbehandelten Kontrolle” value [5, 15] was 6,23 log10 TCID50/0,2 ml, the “Senkung des Virusertrages im Vergleich zur unbehandelten Kontrolle” value [5, 16] was 2,5 log10 TCID50/0,2 ml and the “% Hemmung” value [5, 17] was 99,50%. The “Senkung des Virusertrages im Vergleich zur unbehandelten Kontrolle” value [5, 18] was 4,25 log10 TCID50/0,2 ml, the “% Hemmung” value [5, 19] was > 99,99% and the “Therapeutischer Index = Verhältnis von maximal verträglicher und minimal wirksamer Dosis” value ([5]; für Influenza-Virus, HEZ) was 8. For the same molecule, the “antivirale Wirkung” value [6] was “nicht antiviral wirksam”, the “% Hemmung” value [7, 20] was > 99,99% and the “Senkung des Virusertrages im Vergleich zur unbehandelten Kontrolle” value [7, 20] was > 4,0 log10 TCID50/0,2 ml. The “% Hemmung” value [7, 21] was > 99,99%, the “Senkung des Virusertrages im Vergleich zur unbehandelten Kontrolle” value [7, 21] was > 4,0 log10 TCID50/0,2 ml and the “Senkung des Virusertrages im Vergleich zur unbehandelten Kontrolle” value ([7]; Beispielreihe 3, 31,25 µmol/l, mean of two experiments) was 3,5 log10 TCID50/0,2 ml. The “% Hemmung” value ([7]; Beispielreihe 3, 31,25 µmol/l, mean of two experiments, 31.25 µM) was > 99,9%, the “Senkung des Virusertrages im Vergleich zur unbehandelten Kontrolle” value ([7]; Beispielreihe 3, 62,5 µmol/l, mean of two experiments) was 4,0 log10 TCID50/0,2 ml and the “% Hemmung” value ([7]; Beispielreihe 3, 62,5 µmol/l, mean of two experiments, 62.5 µM) was 99,99%. For the same molecule, the “% Hemmung” value [8, 22] was > 99,99%, the “Senkung des Virusertrages im Vergleich zur unbehandelten Kontrolle” value [8, 22] was 5,5 log10 TCID50/0,2 ml and the “% Hemmung” value [8, 23] was > 99,99%. The “Senkung des Virusertrages im Vergleich zur unbehandelten Kontrolle” value [8, 23] was 6,0 log10 TCID50/0,2 ml, the “Senkung des Virusertrages im Vergleich zur unbehandelten Kontrolle” value ([8]; Beispielreihe 3, Herpes simplex Typ 1 Kupka, 62,5 µmol/l, mean of two experiments) was 0,75 log10 TCID50/0,2 ml and the “% Hemmung” value ([8]; Beispielreihe 3, Herpes simplex Typ 1 Kupka, 62,5 µmol/l, n. s. = nicht signifikant) was “n. s”.

`COc1cc2[nH]c(=O)n(CCCS)c(=O)c2cc1OC` [Beispiel 2, 3-(3-Mercaptoprop-1-yl)-6,7-dimethoxychinazolin-2,4(1H,3H)-dion] was tested, and the “% Hemmung” value [4, 24] was > 99,99%, the “Senkung des Virusertrages im Vergleich zur unbehandelten Kontrolle” value [4, 24] was 5,0 log10 TCID50/02 ml and the “% Hemmung” value [4, 25] was > 99,99%. The “Senkung des Virusertrages im Vergleich zur unbehandelten Kontrolle” value [4, 25] was 5,0 log10 TCID50/02 ml, the “Senkung des Virusertrages im Vergleich zur unbehandelten Kontrolle” value ([4]; Beispielreihe 5b, Hühnerembryonalfibroblasten, 31,25 µmol/l) was 3,0 log10 TCID50/02 ml and the “% Hemmung” value ([4]; Beispielreihe 5b, Hühnerembryonalfibroblasten, 31,25 µmol/l, 31.25 µM) was 99,9%. For the same molecule, the “Senkung des Virusertrages im Vergleich zur unbehandelten Kontrolle” value [4, 26] was 3,5 log10 TCID50/02 ml, the “% Hemmung” value [4, 27] was 99,93% and the “% Hemmung” value [5, 24] was > 99,99%. For the same molecule, the “Senkung des Virusertrages im Vergleich zur unbehandelten Kontrolle” value [5, 24] was 5,0 log10 TCID50/02 ml, the “% Hemmung” value [5, 25] was > 99,99% and the “Senkung des Virusertrages im Vergleich zur unbehandelten Kontrolle” value [5, 25] was 5,0 log10 TCID50/02 ml. The “Senkung des Virusertrages im Vergleich zur unbehandelten Kontrolle” value [5, 26] was 2,0 log10 TCID50/02 ml, the “% Hemmung” value [5, 27] was 99,0% and the “% Hemmung” value ([7]; Beispielreihe 5a, 125 µmol/l) was > 99,99%. The “Senkung des Virusertrages im Vergleich zur unbehandelten Kontrolle” value ([7]; Beispielreihe 5a, 125 µmol/l) was 5,0 log10 TCID50/0,2 ml, the “% Hemmung” value ([7]; Beispielreihe 5a, 250 µmol/l) was > 99,99% and the “Senkung des Virusertrages im Vergleich zur unbehandelten Kontrolle” value ([7]; Beispielreihe 5a, 250 µmol/l) was 5,0 log10 TCID50/0,2 ml. The “Senkung des Virusertrages im Vergleich zur unbehandelten Kontrolle” value ([7]; Beispielreihe 5a, 31,25 µmol/l) was 2,84 log10 TCID50/0,2 ml, the “% Hemmung” value ([7]; Beispielreihe 5a, 31,25 µmol/l, 31.25 µM) was 99,84% and the “Senkung des Virusertrages im Vergleich zur unbehandelten Kontrolle” value ([7]; Beispielreihe 5a, 62,5 µmol/l) was 5,0 log10 TCID50/0,2 ml. For the same molecule, the “% Hemmung” value ([7]; Beispielreihe 5a, 62,5 µmol/l, 62.5 µM) was > 99,99%, the “% Hemmung” value [8, 28] was > 99,99% and the “Senkung des Virusertrages im Vergleich zur unbehandelten Kontrolle” value [8, 28] was 6,5 log10 TCID50/0,2 ml. The “% Hemmung” value [8, 29] was > 99,99%, the “Senkung des Virusertrages im Vergleich zur unbehandelten Kontrolle” value [8, 29] was 6,5 log10 TCID50/0,2 ml and the “Senkung des Virusertrages im Vergleich zur unbehandelten Kontrolle” value ([8]; Beispielreihe 5a, Herpes simplex Typ 1, 31,25 µmol/l) was 3,67 log10 TCID50/0,2 ml. The “% Hemmung” value ([8]; Beispielreihe 5a, Herpes simplex Typ 1, 31,25 µmol/l, 31.25 µM) was 99,97%, the “Senkung des Virusertrages im Vergleich zur unbehandelten Kontrolle” value ([8]; Beispielreihe 5a, Herpes simplex Typ 1, 62,5 µmol/l) was 5,0 log10 TCID50/0,2 ml and the “% Hemmung” value ([8]; Beispielreihe 5a, Herpes simplex Typ 1, 62,5 µmol/l, 62.5 µM) was > 99,99%.
